One test deals with Vps34 (Homo sapiens (Human), UniProt Q8NEB9). Conditions: read-out: Assay C VPS34 IC50.
For the next test, the target named is PI 4-kinase beta (Homo sapiens (Human), UniProt Q9UBF8). To be noted: read-out: Assay D PI4Kβ IC50.

Counter-ions that a name gives are not always drawn. Bounds are passed on as bounds.

Vps34, sequence (Q8NEB9 whole entry): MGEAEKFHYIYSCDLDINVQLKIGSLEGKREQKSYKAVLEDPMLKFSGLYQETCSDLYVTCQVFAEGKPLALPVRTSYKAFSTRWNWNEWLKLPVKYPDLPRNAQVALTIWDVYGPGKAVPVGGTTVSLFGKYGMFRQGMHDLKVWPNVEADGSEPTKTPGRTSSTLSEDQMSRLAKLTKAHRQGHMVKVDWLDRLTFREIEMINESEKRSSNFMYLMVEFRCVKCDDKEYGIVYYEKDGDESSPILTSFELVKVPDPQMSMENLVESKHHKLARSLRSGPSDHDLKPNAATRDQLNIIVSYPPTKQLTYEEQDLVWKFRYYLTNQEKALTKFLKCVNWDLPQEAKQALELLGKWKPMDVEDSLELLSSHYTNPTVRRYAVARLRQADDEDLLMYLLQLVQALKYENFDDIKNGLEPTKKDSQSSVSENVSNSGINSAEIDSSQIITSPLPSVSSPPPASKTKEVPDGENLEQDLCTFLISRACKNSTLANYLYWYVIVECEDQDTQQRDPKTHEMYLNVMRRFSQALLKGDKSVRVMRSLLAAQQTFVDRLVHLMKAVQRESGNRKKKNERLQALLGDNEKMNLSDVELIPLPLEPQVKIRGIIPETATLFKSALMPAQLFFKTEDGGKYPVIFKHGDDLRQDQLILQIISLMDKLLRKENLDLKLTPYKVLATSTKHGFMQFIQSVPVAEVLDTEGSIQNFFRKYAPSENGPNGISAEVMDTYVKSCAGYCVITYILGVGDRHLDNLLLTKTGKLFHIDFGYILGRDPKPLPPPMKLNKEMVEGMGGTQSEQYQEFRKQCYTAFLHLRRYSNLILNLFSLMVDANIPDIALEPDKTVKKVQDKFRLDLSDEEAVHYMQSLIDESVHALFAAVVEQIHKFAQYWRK
PI 4-kinase beta, sequence (Q9UBF8 whole entry): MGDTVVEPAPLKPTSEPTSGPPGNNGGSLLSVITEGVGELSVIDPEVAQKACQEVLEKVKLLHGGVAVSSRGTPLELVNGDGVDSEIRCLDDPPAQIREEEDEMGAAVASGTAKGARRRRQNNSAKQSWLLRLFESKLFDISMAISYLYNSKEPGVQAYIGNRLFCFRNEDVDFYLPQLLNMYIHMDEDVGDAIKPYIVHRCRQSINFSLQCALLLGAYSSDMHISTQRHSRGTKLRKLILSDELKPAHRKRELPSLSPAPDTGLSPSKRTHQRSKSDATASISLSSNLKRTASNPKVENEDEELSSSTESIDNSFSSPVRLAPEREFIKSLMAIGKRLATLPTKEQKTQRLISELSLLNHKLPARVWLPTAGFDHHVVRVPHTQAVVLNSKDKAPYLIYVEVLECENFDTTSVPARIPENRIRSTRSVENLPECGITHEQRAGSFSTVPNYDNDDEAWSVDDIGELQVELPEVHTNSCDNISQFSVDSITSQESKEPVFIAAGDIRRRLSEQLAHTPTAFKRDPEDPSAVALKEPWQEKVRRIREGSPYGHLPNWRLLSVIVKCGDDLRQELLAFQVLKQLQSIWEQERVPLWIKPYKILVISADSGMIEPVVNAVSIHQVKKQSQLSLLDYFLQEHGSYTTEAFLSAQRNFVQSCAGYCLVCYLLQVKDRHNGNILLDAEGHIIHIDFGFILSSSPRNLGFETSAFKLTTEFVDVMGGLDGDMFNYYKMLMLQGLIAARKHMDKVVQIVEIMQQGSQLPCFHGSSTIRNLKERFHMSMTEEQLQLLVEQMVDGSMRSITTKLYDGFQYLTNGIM

Regarding `Cc1ncc(-c2cc(-c3cc(S(N)(=O)=O)ccc3C)cnc2N)s1` [Example 74, 3-(6-Amino-5-(2-methylthiazol-5-yl)pyridin-3-yl)-4-methylbenzenesulfonamide], the values for the IC50 on Vps34 and on PI 4-kinase beta were 2.2 µM and 5 µM, respectively. For `Cc1cc(-c2cc(-c3cc(S(=O)(=O)N[C@@H](C)C4CC4)ccc3C)cnc2N)on1` [Example 19.13, (S)-3-(6-amino-5-(3-methylisoxazol-5-yl)pyridin-3-yl)-N-(1-cyclopropylethyl)-4-methylbenzenesulfon-amide trifluoroacetic acid salt], the half-inhibitory concentration (IC50) (in general, the concentration at which inhibition is half-maximal) at Vps34 was more than 10 µM; at PI 4-kinase beta, 1.6 µM. For `Cc1ncc(-c2cc(-c3cc(S(N)(=O)=O)ccc3C)cnc2N)o1` [Example 33, 3-(6-Amino-5-(2-methyloxazol-5-yl)pyridin-3-yl)-4-methylbenzenesulfonamide], in that order: 3.9 µM and 4.45 µM. With `Cc1cc(-c2cc(-c3cc(S(=O)(=O)NC[C@H]4C[C@@H](O)C4)ccc3C)cnc2N)on1` [Example 84, cis-3-(6-Amino-5-(3-methylisoxazol-5-yl)pyridin-3-yl)-N-(((1s,3s)-3-hydroxycyclobutyl)methyl)-4-methylbenzenesulfonamide], the half-inhibitory concentration (IC50) was more than 10 µM on Vps34 and 2.65 µM at PI 4-kinase beta. For `Cc1cc(-c2cc(-c3cc(S(=O)(=O)NC[C@@H]4CCOC4)ccc3C)cnc2N)on1` [Example 38, (S)-3-(6-Amino-5-(3-methylisoxazol-5-yl)pyridin-3-yl)-4-methyl-N-((tetrahydrofuran-3-yl)methyl)benzenesulfonamide] the same measures were more than 10 µM and 3.1 µM.

As to `Cc1ncc(-c2cc(-c3cc(S(=O)(=O)NCC4(CO)CCOCC4)ccc3C)cnc2N)o1` [Example 104.13, 3-(6-amino-5-(2-methyloxazol-5-yl)pyridin-3-yl)-N-((4-(hydroxymethyl)tetra-hydro-2H-pyran-4-yl)methyl)-4-methylbenzenesulfon-amide], the IC50 at Vps34 is more than 10 µM; on PI 4-kinase beta, 3.4 µM.

With `Cc1cc(-c2cc(-c3cc(S(=O)(=O)N[C@H]4CCC[C@H](O)C4)ccc3C)cnc2N)on1` [Example 19.16, 3-(6-amino-5-(3-methylisoxazol-5-yl)pyridin-3-yl)-N-((1S,3S)-3-hydroxycyclohexyl)-4-methylbenzenesulfon-amide trifluoroacetic acid salt], the results for the half-inhibitory concentration (IC50) on Vps34 and on PI 4-kinase beta were more than 10 µM and 1.5 µM, respectively. For `Cc1cc(-c2cc(-c3cc(S(=O)(=O)NC4CCOC4=O)ccc3C)cnc2N)on1` (centres unmarked) [Example 19.2, 3-(6-amino-5-(3-methylisoxazol-5-yl)pyridin-3-yl)-4-methyl-N-(2-oxotetrahydrofuran-3-yl)benzene sulfonamide trifluoroacetic acid salt] the same measures were more than 10 µM and 3.7 µM. Consider `Cc1cnc(-c2cc(-c3cc(S(=O)(=O)NCCC(C)(C)O)ccc3C)cnc2N)s1` [Example 91, 3-(6-Amino-5-(5-methylthiazol-2-yl)pyridin-3-yl)-N-(3-hydroxy-3-methylbutyl)-4-methylbenzenesulfonamide], for which the figures for the IC50 on Vps34 and on PI 4-kinase beta were more than 10 µM and 0.79 µM, respectively. Consider `Cc1noc(-c2cc(-c3cc(S(=O)(=O)NC[C@@H]4CCOC4)ccc3C)cnc2N)n1` [Example 87, (S)-3-(6-Amino-5-(3-methyl-1,2,4-oxadiazol-5-yl)pyridin-3-yl)-4-methyl-N-((tetrahydrofuran-3-yl)methyl)benzenesulfonamide], for which the IC50 is more than 10 µM at Vps34 and 6.1 µM on PI 4-kinase beta. Regarding `Cc1ccc(S(=O)(=O)NCC(C)(C)O)cc1-c1cnc(N)c(-c2ccn(C)n2)c1` [Example 110, 3-(6-amino-5-(1-methyl-1H-pyrazol-3-yl)pyridin-3-yl)-N-(2-hydroxy-2-methylpropyl)-4-methylbenzenesulfonamide], the IC50 at Vps34 and on PI 4-kinase beta was more than 10 µM each time. With `Cc1ncc(-c2cc(-c3cc(S(=O)(=O)NOCC(C)(C)O)ccc3C)cnc2N)o1` [Example 107, 3-(6-amino-5-(2-methyloxazol-5-yl)pyridin-3-yl)-N-(2-hydroxy-2-methylpropoxy)-4-methylbenzenesulfonamide hydrochloride], the IC50 was more than 10 µM on Vps34 and 0.66 µM on PI 4-kinase beta. With `Cc1ncc(-c2cc(-c3cc(S(=O)(=O)NCC4(C)COC4)ccc3C)cnc2N)o1` [Example 69, 3-(6-Amino-5-(2-methyloxazol-5-yl)pyridin-3-yl)-4-methyl-N-((3-methyloxetan-3-yl)methyl)benzenesulfonamide], the IC50 at Vps34 was 4.4 µM; on PI 4-kinase beta, 2.4 µM.

As for `Cc1ncc(-c2cc(-c3cc(S(=O)(=O)NCC4(O)COC4)ccc3C)cnc2N)o1` [Example 104.7, 3-(6-amino-5-(2-methyloxazol-5-yl)pyridin-3-yl)-N-((3-hydroxyoxetan-3-yl)methyl)-4-methylbenzenesulfon-amide], the figures for the IC50 at Vps34 and on PI 4-kinase beta were 3.2 µM and 1.8 µM, respectively.

Turning to `Cc1nc(-c2cc(-c3cc(S(=O)(=O)N[C@H]4CC[C@H](O)CC4)ccc3C)cnc2N)cs1` [Example 92, 3-(6-Amino-5-(2-methylthiazol-4-yl)pyridin-3-yl)-N-((1r,4r)-4-hydroxycyclohexyl)-4-methylbenzenesulfonamide], the IC50 at Vps34 was more than 10 µM; on PI 4-kinase beta, 5.1 µM. For `Cc1nc(-c2cc(-c3cc(S(=O)(=O)NCC(C)(C)O)ccc3C)cnc2N)cs1` [Example 59, 3-(6-Amino-5-(2-methylthiazol-4-yl)pyridin-3-yl)-N-(2-hydroxy-2-methylpropyl)-4-methylbenzenesulfonamide], in that order: more than 10 µM and more than 10 µM.

Consider `Cc1ccc(S(=O)(=O)NCC(C)(C)O)cc1-c1cnc(N)c(-c2ncco2)c1` [Example 94b, 3-(6-amino-5-(oxazol-2-yl)pyridin-3-yl)-N-(2-hydroxy-2-methylpropyl)-4-methylbenzenesulfonamide], for which the IC50 on Vps34 is more than 10 µM; at PI 4-kinase beta, 1.3 µM. For `Cc1noc(-c2cc(-c3cc(S(=O)(=O)NC(CO)C4CCOC4)ccc3C)cnc2N)n1` (centres unmarked) [Example 37.21, 3-(6-Amino-5-(3-methyl-1,2,4-oxadiazol-5-yl)pyridin-3-yl)-N-(2-hydroxy-1-(tetrahydrofuran-3-yl)ethyl)-4-methylbenzenesulfonamide], the IC50 on PI 4-kinase beta was more than 10 µM. With `Cc1ncc(-c2cc(-c3cc(S(=O)(=O)N[C@H]4CC[C@H](CO)CC4)ccc3C)cnc2N)o1` [Example 104.11, 3-(6-amino-5-(2-methyloxazol-5-yl)pyridin-3-yl)-N-((1r,4r)-4-(hydroxymethyl)cyclo-hexyl)-4-methylbenzenesulfon-amide], the 50% inhibitory concentration (IC50) was 0.3 µM on Vps34 and 0.5 µM at PI 4-kinase beta. `Cc1ncc(-c2cc(-c3cc(S(=O)(=O)NCC4CC4)ccc3C)cnc2N)o1` [Example 104.12, 3-(6-amino-5-(2-methyloxazol-5-yl)pyridin-3-yl)-N-(cyclopropylmethyl)-4-methylbenzenesulfon-amide]: the IC50 at PI 4-kinase beta turned out to be 2.1 µM. Take `Cc1cc(-c2cc(-c3cc(S(=O)(=O)N4CC5(CCOC5)C4)ccc3C)cnc2N)on1` [Example 19.1, 5-(5-(6-oxa-2-azaspiro[3.4]octan-2-ylsulfonyl)-2-methylphenyl)-3-(3-methylisoxazol-5-yl)pyridin-2-amine trifluoroacetic acid salt]: the IC50 on PI 4-kinase beta was determined as 4 µM. The same measure, in the same setting: the same measure for `COC[C@@H]1COCCN1S(=O)(=O)c1ccc(C)c(-c2cnc(N)c(-c3cc(C)no3)c2)c1` [Example 19.20, (R)-5-(5-((3-(methoxymethyl)morpho-lino)sulfonyl)-2-methylphenyl)-3-(3-methylisoxazol-5-yl)pyridin-2-amine trifluoroacetic acid salt]: 4.2 µM; for `Cc1cc(-c2cc(-c3cc(S(=O)(=O)N4CCC[C@H]4CO)ccc3C)cnc2N)on1` [Example 19.15, (S)-(1-((3-(6-amino-5-(3-methylisoxazol-5-yl)pyridin-3-yl)-4-methylphenyl)sulfonyl)pyrrolidin-2-yl)methanol trifluoroacetic acid salt]: 0.9 µM; for `Cc1ccc(S(=O)(=O)NCC(C)(C)O)cc1-c1cnc(N)c(-c2cc(C(=O)N3CCOCC3)no2)c1` [Example 42, 3-(6-Amino-5-(3-(morpholine-4-carbonyl)isoxazol-5-yl)pyridin-3-yl)-N-(2-hydroxy-2-methylpropyl)-4-methylbenzenesulfonamide]: 2.9 µM. Same read-out and setting: in the case of `Cc1cc(-c2cc(-c3cc(S(=O)(=O)N4CCCC4(C)C)ccc3C)cnc2N)on1` [Example 19.9, 5-(5-((2,2-dimethylpyrrolidin-1-yl)sulfonyl)-2-methylphenyl)-3-(3-methylisoxazol-5-yl)pyridin-2-amine trifluoroacetic acid salt] it was 1.9 µM. Still for that read-out and setting: the same measure for `Cc1cc(-c2cc(-c3cc(S(=O)(=O)NCC4(CO)CCOCC4)ccc3C)cnc2N)on1` [Example 37.1, 3-(6-Amino-5-(3-methylisoxazol-5-yl)pyridin-3-yl)-N-((4-(hydroxymethyl)tetrahydro-2H-pyran-4-yl)methyl)-4-methylbenzenesulfonamide]: 3.5 µM. As for `Cc1noc(-c2cc(-c3cc(S(=O)(=O)NCC(C)(F)F)ccc3C)cnc2N)n1` [Example 37.38, 3-(6-Amino-5-(3-methyl-1,2,4-oxadiazol-5-yl)pyridin-3-yl)-N-(2,2-difluoropropyl)-4-methylbenzenesulfonamide], the IC50 at PI 4-kinase beta came out at 7.5 µM. As to `Cc1noc(-c2cc(-c3cc(S(N)(=O)=O)ccc3C)cnc2N)n1` [Example 75, 3-(6-Amino-5-(3-methyl-1,2,4-oxadiazol-5-yl)pyridin-3-yl)-4-methylbenzenesulfonamide], the IC50 at PI 4-kinase beta is more than 10 µM.

Take `Cc1ccc(S(=O)(=O)NCC(C)(C)O)cc1-c1cnc(N)c(-c2ccn(C)c2)c1` [Example 58, 3-(6-Amino-5-(1-methyl-1H-pyrrol-3-yl)pyridin-3-yl)-N-(2-hydroxy-2-methylpropyl)-4-methylbenzenesulfonamide hydrochloride]: at PI 4-kinase beta, the IC50 was 3.2 µM.
